ChEMBL document CHEMBL4270508, “1,3,5-Triazines: A promising scaffold for anticancer drugs development” (Eur J Med Chem, 2017)
Converted amounts (≈) assume the structure as drawn. Blank lines part the entries; values can stand above or below the compound they belong to.

Legend:
MCF7 [1] = assay: Antiproliferative activity in human MCF7 cells assessed as inhibition of cell proliferation; type: functional, cell-based
MDA-MB-231 [2] = assay: Antiproliferative activity in human MDA-MB-231 cells assessed as inhibition of cell proliferation; type: functional, cell-based
SK-BR-3 = assay: Antiproliferative activity in human SK-BR-3 cells assessed as inhibition of cell proliferation by SRB/MTT assay; type: functional, cell-based
BT-474 = assay: Antiproliferative activity in human BT474 cells assessed as inhibition of cell proliferation by SRB/MTT assay; type: functional, cell-based
A549 [3] = assay: Antiproliferative activity in human A549 cells assessed as inhibition of cell proliferation by SRB/MTT assay; type: functional, cell-based
K562 [4] = assay: Antiproliferative activity in human K562 cells assessed as inhibition of cell proliferation by SRB/MTT assay; type: functional, cell-based
HCT-116 = assay: Antiproliferative activity in human HCT116 cells assessed as inhibition of cell proliferation by SRB/MTT assay; type: functional, cell-based
Homo sapiens = species on record: Homo sapiens; assay: Inhibition of PI3K in human A549 cell lysates assessed as remaining enzyme activity at 1 uM pre-incubated for 5 mins before [gamma-32P]ATP addition and further incubated for 20 mins by TLC and autoradiography relative to untreated control
NCI-H460 = assay: Antiproliferative activity in human NCI-H460 cells incubated for 72 hrs by MTT assay; type: functional, cell-based; details: NCI-H460, 72 h
HT-29 [5] = assay: Antiproliferative activity in human HT-29 cells incubated for 72 hrs by MTT assay; type: functional, cell-based; details: HT-29, 72 h
MDA-MB-231 [6] = assay: Antiproliferative activity in human MDA-MB-231 cells incubated for 72 hrs by MTT assay; type: functional, cell-based; details: MDA-MB-231, 72 h
HepG2 = assay: Anticancer activity against human HepG2 cells incubated for 48 hrs by SRB assay; type: functional, cell-based; details: HepG2, 48 h
MCF7 [7] = assay: Anticancer activity against human MCF7 cells incubated for 48 hrs by SRB assay; type: functional, cell-based; details: MCF7, 48 h
K562 [8] = assay: Cytotoxicity in human K562 cells assessed as reduction in cell viability incubated for 72 hrs by MTT assay; type: functional, cell-based; details: K562, 72 h
PC-3 = assay: Cytotoxicity in human PC3 cells assessed as reduction in cell viability incubated for 72 hrs by MTT assay; type: functional, cell-based; details: PC-3, 72 h
[9] = Cytotoxicity in human HO8910 cells assessed as reduction in cell viability incubated for 72 hrs by MTT assay; type: functional, cell-based; details: HO-8910, 72 h
[10] = Inhibition of rhodamine-labeled purified porcine brain tubulin polymerization in presence of GTP incubated for 30 mins by epifluorescence microscopy; design: species or system Sus scrofa
[11] = test system: Panel NCI-60 (60 carcinoma cell lines); assay: Growth inhibition of human NCI60 cells incubated for 48 hrs by SRB assay; type: functional, cell-based
[12] = Inhibition of starfish oocytes CDK1/cyclin B using histone H1 and [gamma-33P]ATP incubated fro 30 mins by scintillation counting analysis; design: species or system Asteroidea
[13] = target: Cyclin-dependent kinase 5/CDK5 activator 1 (Homo sapiens, UniProt Q00535); assay: Inhibition of human recombinant CDK5/p25 using histone H1 and [gamma-33P]ATP incubated fro 30 mins by scintillation counting analysis; type: protein-complex assay
Cyclin-dependent kinase 5/CDK5 activator 1, sequence (Q00535 whole entry): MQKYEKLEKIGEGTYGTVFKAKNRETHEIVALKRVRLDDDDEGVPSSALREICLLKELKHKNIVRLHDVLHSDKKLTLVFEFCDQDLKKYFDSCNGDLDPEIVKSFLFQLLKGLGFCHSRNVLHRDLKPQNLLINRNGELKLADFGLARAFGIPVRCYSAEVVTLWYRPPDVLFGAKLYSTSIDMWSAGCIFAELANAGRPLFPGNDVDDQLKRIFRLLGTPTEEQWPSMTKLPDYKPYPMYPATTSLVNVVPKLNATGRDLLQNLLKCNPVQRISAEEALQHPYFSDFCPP
Cyclin-dependent kinase 5/CDK5 activator 1, sequence (Q15078 whole entry, further chain): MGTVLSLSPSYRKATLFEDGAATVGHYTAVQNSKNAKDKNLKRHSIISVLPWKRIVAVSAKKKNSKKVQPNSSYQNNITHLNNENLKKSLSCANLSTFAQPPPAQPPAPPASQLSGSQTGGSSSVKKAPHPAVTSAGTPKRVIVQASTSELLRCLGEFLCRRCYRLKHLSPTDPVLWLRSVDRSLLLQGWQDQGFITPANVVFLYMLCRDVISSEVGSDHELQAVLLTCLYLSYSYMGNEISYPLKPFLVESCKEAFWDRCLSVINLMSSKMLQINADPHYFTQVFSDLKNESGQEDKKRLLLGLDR

[14] = target: Cyclin-dependent kinase 7/ cyclin H (Homo sapiens, UniProt P50613); assay: Inhibition of human recombinant CDK7/cyclin H using histone H1 and [gamma-33P]ATP incubated fro 30 mins by scintillation counting analysis; type: protein-complex assay
Cyclin-dependent kinase 7/ cyclin H, sequence (P51946 whole entry, the tested form may be a part): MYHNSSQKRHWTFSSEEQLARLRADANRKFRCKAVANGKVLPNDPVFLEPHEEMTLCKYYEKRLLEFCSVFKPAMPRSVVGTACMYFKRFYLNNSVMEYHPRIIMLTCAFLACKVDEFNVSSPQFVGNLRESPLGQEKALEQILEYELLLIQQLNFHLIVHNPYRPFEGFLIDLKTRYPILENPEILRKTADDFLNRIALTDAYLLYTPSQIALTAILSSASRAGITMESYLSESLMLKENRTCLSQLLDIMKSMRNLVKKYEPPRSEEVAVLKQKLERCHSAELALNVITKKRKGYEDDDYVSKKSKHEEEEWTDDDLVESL
Cyclin-dependent kinase 7/ cyclin H, sequence (P50613 whole entry, the tested form may be a part): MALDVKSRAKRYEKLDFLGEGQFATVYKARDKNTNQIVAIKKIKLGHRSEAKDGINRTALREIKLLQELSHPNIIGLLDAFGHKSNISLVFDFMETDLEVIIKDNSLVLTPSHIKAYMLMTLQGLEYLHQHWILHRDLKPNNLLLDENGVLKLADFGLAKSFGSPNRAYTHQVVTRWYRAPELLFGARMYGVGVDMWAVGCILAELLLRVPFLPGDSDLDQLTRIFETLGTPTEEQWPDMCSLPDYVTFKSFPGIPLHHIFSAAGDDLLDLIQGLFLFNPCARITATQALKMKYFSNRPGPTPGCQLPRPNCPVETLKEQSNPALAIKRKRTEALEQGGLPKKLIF

CDK9/cyclin T1 = CDK9/cyclin T1 (Homo sapiens, UniProt P50750); assay: Inhibition of human recombinant CDK9/cyclin T expressed in insect cells using pRb fragment (773 to 928 amino acids) and [gamma-33P]ATP incubated fro 30 mins by scintillation counting analysis
CDK9/cyclin T1, sequence (O60563 whole entry, the tested form may be a part): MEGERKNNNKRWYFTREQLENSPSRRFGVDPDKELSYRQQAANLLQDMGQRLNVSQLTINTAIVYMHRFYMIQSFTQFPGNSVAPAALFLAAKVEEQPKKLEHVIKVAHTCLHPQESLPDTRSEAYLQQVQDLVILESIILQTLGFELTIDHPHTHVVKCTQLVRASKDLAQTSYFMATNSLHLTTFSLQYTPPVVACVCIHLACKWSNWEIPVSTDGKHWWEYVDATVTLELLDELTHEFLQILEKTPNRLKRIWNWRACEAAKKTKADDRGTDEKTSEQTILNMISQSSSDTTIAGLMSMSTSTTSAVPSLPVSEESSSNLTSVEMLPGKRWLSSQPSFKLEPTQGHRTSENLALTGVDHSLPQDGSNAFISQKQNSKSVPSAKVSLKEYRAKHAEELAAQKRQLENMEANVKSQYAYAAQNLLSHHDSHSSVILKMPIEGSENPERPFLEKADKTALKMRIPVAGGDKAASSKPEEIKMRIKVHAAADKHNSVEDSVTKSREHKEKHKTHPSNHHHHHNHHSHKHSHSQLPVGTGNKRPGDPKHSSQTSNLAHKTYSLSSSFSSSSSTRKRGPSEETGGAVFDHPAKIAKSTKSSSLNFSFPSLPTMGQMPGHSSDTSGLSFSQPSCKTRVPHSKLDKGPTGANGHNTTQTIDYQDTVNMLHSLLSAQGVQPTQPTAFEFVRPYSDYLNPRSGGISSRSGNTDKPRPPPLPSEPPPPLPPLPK
CDK9/cyclin T1, sequence (P50750 whole entry, the tested form may be a part): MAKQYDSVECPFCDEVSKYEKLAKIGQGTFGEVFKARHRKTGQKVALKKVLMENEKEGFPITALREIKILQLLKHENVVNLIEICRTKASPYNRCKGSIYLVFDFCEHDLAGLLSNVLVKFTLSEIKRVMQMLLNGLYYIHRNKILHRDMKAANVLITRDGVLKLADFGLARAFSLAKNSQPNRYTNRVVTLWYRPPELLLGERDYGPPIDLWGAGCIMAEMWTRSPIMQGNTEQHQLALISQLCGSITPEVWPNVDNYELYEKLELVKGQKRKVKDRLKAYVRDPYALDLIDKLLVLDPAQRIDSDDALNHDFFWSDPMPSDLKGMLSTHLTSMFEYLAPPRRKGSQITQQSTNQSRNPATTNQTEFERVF

HT-29 [15] = assay: Anticancer activity against human HT-29 cells incubated for 48 hrs by MTT assay; type: functional, cell-based; details: HT-29, 48 h
MCF7 [16] = assay: Anticancer activity against human MCF7 cells incubated for 48 hrs by MTT assay; type: functional, cell-based; details: MCF7, 48 h
MDA-MB-231 [17] = assay: Anticancer activity against human MDA-MB-231 cells incubated for 48 hrs by MTT assay; type: functional, cell-based; details: MDA-MB-231, 48 h
HGC-27 = assay: Anticancer activity against human HGC27 cells incubated for 48 hrs by MTT assay; type: functional, cell-based; details: HGC-27, 48 h
[18] = target: Ubiquitin-conjugating enzyme E2 B (Homo sapiens, UniProt P63146); assay: Inhibition of human recombinant Rad6B using ubiquitin and histone H2A and ubiquitin-activating enzyme E1 preincubated for 1 hr before ubiquitin and histone H2A addition by SDS-PAGE and immunoblotting analysis
Ubiquitin-conjugating enzyme E2 B, sequence (P63146 whole entry): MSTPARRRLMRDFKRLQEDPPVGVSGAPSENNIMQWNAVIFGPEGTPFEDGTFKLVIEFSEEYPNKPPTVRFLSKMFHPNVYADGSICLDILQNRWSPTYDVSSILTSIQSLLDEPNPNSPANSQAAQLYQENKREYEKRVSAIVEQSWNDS

A549 [19] = assay: Antiproliferative activity in human A549 cells assessed as inhibition of cell proliferation by MTT assay; type: functional, cell-based

Structure (SMILES): COc1nc(Nc2ccccc2)nc([N+]23CC[N+](CCCl)(CC2)CC3)n1
IC50 (MCF7 [1]): 12.3 µM | IC50 (MDA-MB-231 [2]): 40.3 to 112 µM

Structure (SMILES): COC(=O)[C@H](Cc1ccccc1)Nc1nc(OC)nc([N+]23CC[N+](CCCl)(CC2)CC3)n1
IC50 (MCF7 [1]): 7.4 to 136 µM | IC50 (MDA-MB-231 [2]): 40.3 to 112 µM

IC50 (SK-BR-3): 8.9 µM | IC50 (BT-474): 7.1 µM | IC50 (A549 [3]): 7.5 µM | IC50 (K562 [4]): 8.6 µM | IC50 (HCT-116): 6.7 µM
Structure (SMILES): Cc1cc(C)n(-c2nc(N/N=C\c3c[nH]c4ccccc34)nc(Nc3ccc(Br)cc3)n2)n1

Structure (SMILES): COc1nc(NCc2ccccc2)nc([N+]23CC[N+](CCCl)(CC2)CC3)n1
IC50 (MCF7 [1]): 7.4 to 136 µM | IC50 (MDA-MB-231 [2]): 40.3 to 112 µM

Structure (SMILES): COc1nc(N2CCCCC2)nc([N+]23CC[N+](CCCl)(CC2)CC3)n1
IC50 (MCF7 [1]): 7.4 to 136 µM | IC50 (MDA-MB-231 [2]): 40.3 to 112 µM

Structure (SMILES): COC(=O)[C@H](CO)Nc1nc(OC)nc([N+]23CC[N+](CCCl)(CC2)CC3)n1
IC50 (MCF7 [1]): 7.4 to 136 µM | IC50 (MDA-MB-231 [2]): 40.3 to 112 µM

Structure (SMILES): CCCCNc1nc(OC)nc([N+]23CC[N+](CCCl)(CC2)CC3)n1
IC50 (MCF7 [1]): 7.4 to 136 µM | IC50 (MDA-MB-231 [2]): 40.3 to 112 µM

Activity (Homo sapiens): 4.7%
Structure (SMILES): FC(F)c1nc2ccccc2n1-c1nc(N2CCOCC2)nc(N2CCOCC2)n1

Structure (SMILES): COC(=O)[C@H](C)Nc1nc(OC)nc([N+]23CC[N+](CCCl)(CC2)CC3)n1
IC50 (MCF7 [1]): 7.4 to 136 µM | IC50 (MDA-MB-231 [2]): 40.3 to 112 µM

IC50 (NCI-H460): 0.75 µM | IC50 (HT-29 [5]): 0.34 µM | IC50 (MDA-MB-231 [6]): 0.6 µM
Structure (SMILES): C=CCc1cc(C)cc(/C=N/NC(=O)Nc2nc(N3CCOCC3)nc(N3CCOCC3)n2)c1O

IC50 (HepG2): 3.7 mg/L (≈ 1.74 µM) | IC50 (MCF7 [7]): 2.95 mg/L (≈ 1.39 µM)
Structure (SMILES): CCCCCCCCCCCCCCCCOC(=O)c1cc(C(=O)OCCCCCCCCCCCCCCCC)cc(-n2cc(-c3nc(-c4cn(-c5cc(C(=O)OCCCCCCCCCCCCCCCC)cc(C(=O)OCCCCCCCCCCCCCCCC)c5)nn4)nc(-c4cn(-c5cc(C(=O)OCCCCCCCCCCCCCCCC)cc(C(=O)OCCCCCCCCCCCCCCCC)c5)nn4)n3)nn2)c1

Structure (SMILES): O=C(O)CCCc1ccc(N(CCCl)CCCl)cc1 [CHLORAMBUCIL]
IC50 (MCF7 [1]): 29.1 µM

Structure (SMILES): Cc1ccc(Nc2nc(-c3ccccc3)nc(N3CCNCC3)n2)cc1
IC50 (K562 [8]): 1.01 µM | IC50 (PC-3): 2.23 µM | IC50 [9]: 1.06 µM

IC50 [10]: 3.6 µM
Structure (SMILES): COc1ccc(CNc2nc(NCc3ccc(OC)cc3)c3ncn(C(C)C)c3n2)cc1 [MYOSEVERIN]

Structure (SMILES): COc1nc(Nc2ccc(C)cc2)nc([N+]23CC[N+](CCCl)(CC2)CC3)n1
IC50 (MCF7 [1]): 7.4 µM | IC50 (MDA-MB-231 [2]): 40.3 to 112 µM

Structure (SMILES): Nc1nc2nc(-c3ccccc3)nc(-c3ccccc3)n2n1
IC50 [11]: 0.49 to 100 µM

IC50 (NCI-H460): 0.05 µM
Structure (SMILES): N#Cc1ccc(Cn2cc(/C=N/Nc3nc(N4CCOCC4)nc(N4CCOCC4)n3)c3ccccc32)cc1

IC50 [13]: 0.043 to 0.5 µM | IC50 [14]: 0.043 to 0.5 µM | IC50 (CDK9/cyclin T1): 0.043 to 0.5 µM
Structure (SMILES): CC[C@H](CO)Nc1nc(NCc2ccccc2)n2ncc(C(C)C)c2n1
IC50 [12]: 0.043 to 0.5 µM

Structure (SMILES): COc1nc(N2CCOCC2)nc([N+]23CC[N+](CCCl)(CC2)CC3)n1
IC50 (MCF7 [1]): 7.4 to 136 µM | IC50 (MDA-MB-231 [2]): 40.3 to 112 µM

IC50 (HT-29 [15]): 4.8 to 15.1 µM | IC50 (MCF7 [16]): 4.8 to 15.1 µM | IC50 (MDA-MB-231 [17]): 4.8 to 15.1 µM
Structure (SMILES): c1ccc(Nc2nc(Nc3ccc(-c4nc5ccccc5[nH]4)cc3)nc(N3CCOCC3)n2)cc1
IC50 (HGC-27): 4.8 to 15.1 µM

IC50 [18]: 0.025 µM
Structure (SMILES): Nc1nc(COC(=O)c2ccc([N+](=O)[O-])cc2)nc(Nc2ccccc2)n1

IC50 (A549 [19]): 6 µM
Structure (SMILES): Cc1cc(=O)n2c(n1)N=C(N)NC2c1ccco1 (configuration not stated)

IC50 (NCI-H460): 0.07 µM
Structure (SMILES): Clc1ccc(Cn2cc(/C=N/Nc3nc(N4CCOCC4)nc(N4CCOCC4)n3)c3ccccc32)cc1Cl
